# According to patent US9738639B2, “Pyrroloquinoline quinone lithium salt crystal and preparation method and application thereof” (SHANGHAI RI XIN BIOTECHNOLOGY CO., LTD., priority 2013, dated 2017):
# What was measured:
# [1] = Hygroscopicity by dynamic vapor sorption (DVS) analysis; format: physicochemical; conditions: for hygroscopicity: DVS
# Description: Dynamic Vapor Sorption (DVS) curves of the polymorphs are measured on SMS DVS Intrinsic at 0-95% RH and 25° C.
# The compound stably exists as a nonahydrate by dynamic vapor sorption analysis. It forms monohydrate under the scope of relative humidity (RH) from 20% to 50%. It forms dihydrate under the scope of relative humidity (RH) from 70% to 100%. It could forms polyhydrate with further increased relative humidity (RH).
# Under the scope of relative humidity (RH) from 5% to 95%, the hygroscopicity of the intermediate A of pyrroloquinoline quinine lithium salt and the crystalline form B of pyrroloquinoline quinine lithium salt from example 1 is measured by dynamic vapor sorption analysis. […] The crystalline solid is not good. The hygroscopicity of the crystalline form B of pyrroloquinoline quinine lithium salt is 8.4% and 13.9% under the relative humidity (RH) of 65% and 80%, respectively. […] The crystalline solid is not good.
# APP/PS1 transgenic mice = assay: Morris water maze probe test in APP/PS1 transgenic mice; format: in vivo; conditions: for Adjusted average distance of approaching to platform / Swimming path, I quadrant occupancy of platform / first time of crossing platform / time spent of IV quadrant / time, I quadrant occupancy of platform / times of crossing platform: probe test on 5th day, n = 10
# Description: 1. […] 2. APP/PS1 transgenic mice (Model Animal Research Center of Nanjing University, weights of mice are from 30 g to 40 g, male, totally 60 mice). Sixty mice are randomized to six groups (group 2 to group 7) with ten mice for each group. […] group: 0.15 mg/mL […] solution is obtained by grinding one tablet (5 mg) of […] into powder, followed by dissolved in 0.5% CMC (carboxymethylcellulose). Morris water maze (Experimental video analysis system of Morris water maze, JLBehv-MWMG, Shanghai Jiliang Technology Co., Ltd) Group 1 and group 2 are daily administrated by normal saline and group 3 to group 7 are daily administrated by drug solutions prepared above, with the dosage of 1 mL/100 g/day for continuous one month. From the fifth week, mice are training in Morris water maze, 30 minutes after drug administration. The training session lasts for 4 days. The probe test performed on the 5th day. The Morris water maze statistics software is used to automatically record and analyze the swimming trace in the quadrant, time spent and path in target or opposite quadrant occupancy and times of crossing platform. The data is indicated as average±standard deviation (x±SD). The analysis of variance for a single factor is used for data difference statistics. Difference between groups is determined by P<0.05.
# [2] = tested on: glycogen synthase kinase-3 (GSK-3); conditions: background statement, no data; cited from earlier work
# [3] = 0.375 mg/kg daily for one month
structure (smiles),measurement,setting,value
"O=C([O-])c1cc(C(=O)[O-])c2c(n1)C(=O)C(=O)c1cc(C(=O)[O-])[nH]c1-2.[Li+].[Li+].[Li+] [trilithium derivative of pyrroloquinoline quinine, reference compound]",crystalline solid (assessment in words),[1]; after the hygroscopicity comparison,not good
same,hygroscopicity variety under the normal moist environment for storage,[1],5-25%
same,hygroscopicity,[1]; relative humidity (RH) of 65%,25.3%
same,hygroscopicity,[1]; relative humidity (RH) of 80%,32.6%
"COc1cc2c(cc1OC)C(=O)C(CC1CCN(Cc3ccccc3)CC1)C2 (stereo not shown) [Aricept, reference compound]",Adjusted average distance of approaching to platform,APP/PS1 transgenic mice; 1.5 mg/kg daily for one month,582.7 mm
same,"Swimming path, I quadrant occupancy of platform",APP/PS1 transgenic mice; 1.5 mg/kg daily for one month,2730.8 mm
same,first time of crossing platform,APP/PS1 transgenic mice; 1.5 mg/kg daily for one month,30.7 s
same,time spent of IV quadrant,APP/PS1 transgenic mice; 1.5 mg/kg daily for one month,21.7 s
same,"time, I quadrant occupancy of platform",APP/PS1 transgenic mice; 1.5 mg/kg daily for one month,9.3 s
same,times of crossing platform,APP/PS1 transgenic mice; 1.5 mg/kg daily for one month,1.6
"O=C([O-])c1cc(C(=O)[O-])c2c(n1)C(=O)C(=O)c1cc(C(=O)[O-])[nH]c1-2.[Li+].[Li+].[Li+] [PQQ-Li, trilithium derivative of pyrroloquinoline quinine]",hydrate form in which the compound stably exists,[1]; dynamic vapor sorption analysis,nonahydrate
same,hygroscopicity variety under the normal moist environment for storage,[1]; listed as crystalline form B of pyrroloquinoline quinine lithium salt,5-10%
same,hydrate form,[1]; relative humidity (RH) from 20% to 50%,monohydrate
same,hydrate form,[1]; relative humidity (RH) from 70% to 100%,dihydrate
same,hygroscopicity,"[1]; relative humidity (RH) of 65%, listed as crystalline form B of pyrroloquinoline quinine lithium salt",8.4%
same,hygroscopicity,"[1]; relative humidity (RH) of 80%, listed as crystalline form B of pyrroloquinoline quinine lithium salt",13.9%
same,Adjusted average distance of approaching to platform,APP/PS1 transgenic mice; [3],762.6 mm
same,"Swimming path, I quadrant occupancy of platform",APP/PS1 transgenic mice; [3],961.6 mm
same,first time of crossing platform,APP/PS1 transgenic mice; [3],44.9 s
same,time spent of IV quadrant,APP/PS1 transgenic mice; [3],12.4 s
same,"time, I quadrant occupancy of platform",APP/PS1 transgenic mice; [3],2.8 s
same,times of crossing platform,APP/PS1 transgenic mice; [3],0.8
same,Adjusted average distance of approaching to platform,APP/PS1 transgenic mice; 0.75 mg/kg daily for one month,674.9 mm
same,"Swimming path, I quadrant occupancy of platform",APP/PS1 transgenic mice; 0.75 mg/kg daily for one month,2029.9 mm
same,first time of crossing platform,APP/PS1 transgenic mice; 0.75 mg/kg daily for one month,31.3 s
same,time spent of IV quadrant,APP/PS1 transgenic mice; 0.75 mg/kg daily for one month,15.8 s
same,"time, I quadrant occupancy of platform",APP/PS1 transgenic mice; 0.75 mg/kg daily for one month,6.4 s
same,times of crossing platform,APP/PS1 transgenic mice; 0.75 mg/kg daily for one month,1.6
same,Adjusted average distance of approaching to platform,APP/PS1 transgenic mice; 1.5 mg/kg daily for one month,605.6 mm
same,"Swimming path, I quadrant occupancy of platform",APP/PS1 transgenic mice; 1.5 mg/kg daily for one month,2653.3 mm
same,first time of crossing platform,APP/PS1 transgenic mice; 1.5 mg/kg daily for one month,22.7 s
same,time spent of IV quadrant,APP/PS1 transgenic mice; 1.5 mg/kg daily for one month,17.7 s
same,"time, I quadrant occupancy of platform",APP/PS1 transgenic mice; 1.5 mg/kg daily for one month,8.9 s
same,times of crossing platform,APP/PS1 transgenic mice; 1.5 mg/kg daily for one month,2.2
same,Adjusted average distance of approaching to platform,APP/PS1 transgenic mice; 3 mg/kg daily for one month,572.5 mm
same,"Swimming path, I quadrant occupancy of platform",APP/PS1 transgenic mice; 3 mg/kg daily for one month,2636.1 mm
same,first time of crossing platform,APP/PS1 transgenic mice; 3 mg/kg daily for one month,21.8 s
same,time spent of IV quadrant,APP/PS1 transgenic mice; 3 mg/kg daily for one month,19.5 s
same,"time, I quadrant occupancy of platform",APP/PS1 transgenic mice; 3 mg/kg daily for one month,9.2 s
same,times of crossing platform,APP/PS1 transgenic mice; 3 mg/kg daily for one month,2.3
same,dose dependence of effects in Morris water maze test,"APP/PS1 transgenic mice; APP/PS1 transgenic mice, 0.375-3 mg/kg",good dose-dependent effects
same,effect on spatial memory and cognitive impairment,"APP/PS1 transgenic mice; APP/PS1 transgenic mice, Morris water maze test",significantly improved spatial memory and cognitive impairment
"O=C([O-])c1cc(C(=O)[O-])c2c(n1)C(=O)C(=O)c1cc(C(=O)[O-])[nH]c1-2.[Li+].[Li+].[Li+] [Pyrroloquinoline quinine lithium salt, trilithium derivative of pyrroloquinoline quinine]",effect on glycogen synthase kinase-3 activities (GSK-3),[2],suppress the glycogen synthase kinase-3 activities
